Values of other authors as cited in patent US6069254A, “Carboxamide derivatives of piperidine for the treatment of thrombosis disorders” (Ortho Pharmaceutical Corp., priority 1997, dated 2000).

Legend:
[1] = test system: platelets (thrombin-induced platelet aggregation); settings: L. Alig, J. Med. Chem. 1992, 35, 4393; read-out: IC50 against in vitro thrombin-induced platelet aggregation; cited from earlier work
GPIIb/IIIa = GPIIb/IIIa (Homo sapiens, UniProt P05106+P08514); settings: background statement; cited from earlier work

| Compound | IC50 [1] [nM] | inhibition of fibrinogen binding to GPIIb/IIIa (GPIIb/IIIa) |
| --- | --- | --- |
| CN(CC(=O)c1ccc(OCC(=O)O)c(OCC(=O)O)c1)C(=O)c1ccc(C(=N)N)cc1 [Ro-438857] | 94 |  |
| Arg-Gly-Asp [Arg-Gly-Asp (RGD)] |  | shown to inhibit fibrinogen binding to GPIIb/IIIa |
| HHLGGAKQAGDV [γ-chain peptide region of fibrinogen, γ400-411] |  | shown to inhibit fibrinogen binding to GPIIb/IIIa |
